# Experimental data taken from US8703764B2, “Combination therapy for dementia, depression and apathy” (priority 2003, dated 2014).
# Legend:
# [1] = system: apathy in a patient with Parkinson's disease; assay: Case report Example 5: severe apathy in a patient with Parkinson's disease; type: in vivo, human; details: before admission to hospital
# Source text: A person retired sailor developed Parkinson's disease more than 5 years before admission to hospital. After the onset of Parkinson's disease they developed decreased motivation and decreased interest. The severity of the apathy progressed to a near total lack of initiative. A trial of methylphenidate for apathy was unsuccessful. They were admitted to hospital with anxiety, severe apathy and constipation. They were unable to function at home leading to caregiver burn out.
# Core symptoms of delirium were absent. A shuffling gait devoid of heel strike or toe push was observed. Arm swing was decreased. This person described decreased motivation in face of clear enjoyment of family visits and the sunshine outside. Their capacity for projective pleasure was preserved. They were satisfied with their accomplishments over their life. They felt their quality of life was reduced by their lack initiative. Objective mood and affect were flat. Thought form was marked by latency but progressed logically to a goal oriented conclusion. Thought content was free of delusions or hallucinations. Language was mildly impaired with paraphasic errors noted. Remote memories were difficult to recall and approximately correct. Their sense of humor and capacity for abstraction were preserved.
# This was judged consistent with Parkinson's disease by the registered psychologist.
# They could walk four lengths of the hallway. […]
# [2] = system: patient with depressed mood, lack of pleasure and absent initiative; assay: Case report Example 6: depressed mood, lack of pleasure and absent initiative in a retired nurse; type: in vivo, human
# Experimental: A 75 year retired nurse lived independently in the community until 2 months prior to admission.
# Moclobemide was commenced at 200 mg. daily on day 4, increased to 300 mg. daily and day 6 and continued at 300 mg. daily.
# Risperidone was commenced at 0.5 mg daily on day 7, discontinued on day 14 then restarted at 0.5 mg daily alternating with 0.25 mg. daily and continued as such.
# [3] = system: patient with early onset Alzheimer's disease; assay: Case report Example 4: patient with early onset Alzheimer's disease, anxiety and depressed mood; details: for adverse effect leading to discontinuation: human, in vivo
structure (smiles),measurement,setting,value
COC(=O)C(c1ccccc1)C1CCCCN1 (stereo not drawn) [methylphenidate],trial for apathy,[1],unsuccessful
"O=C(NCCN1CCOCC1)c1ccc(Cl)cc1 [moclobemide, p-chloro-N-(2-morpholinoethyl) benzamide]",late afternoon quality of mood and mobility of affect,"[2]; by Day 6, moclobemide 200 mg daily from day 4, 300 mg daily from day 6, before risperidone",improved
COc1ccc(C(CN(C)C)C2(O)CCCCC2)cc1 (stereo not drawn) [venlafaxine],adverse effect leading to discontinuation,[3],excessive sweating
same,depressed mood,"[3]; venlafaxine 150 mg daily, donepezil 10 mg daily commenced",responded
"Cc1nc2n(c(=O)c1CCN1CCC(c3noc4cc(F)ccc34)CC1)CCCC2 [risperidone, 3-[2-[4-(6-fluoro-1,2-benzisoxazol-3-yl)piperidino]ethyl]-2-methyl-6,7,8,9-tetrahydro-4H-pyrido-[1,2-a]pyrimidin-4-one]",extrapyramidal side effects,"[2]; shortly after Day 13, risperidone 0.5 mg daily",mild extrapyramidal symptoms emerged
same,adverse effect leading to discontinuation,[3],emergence of dystonia
